Results: US11413289B2 (Aerovate Therapeutics, Inc., priority 2019, dated 2022)

Assay: Thermal stability and polymorphism of imatinib salts
Assay type: physicochemical

Compound	thermal stability and polymorphic forms
O=S(=O)(O)CCO [isethionate]	suitable thermal stability and few or single polymorphic forms
malate	suitable thermal stability and few or single polymorphic forms
malonate	suitable thermal stability and few or single polymorphic forms
tartrate	suitable thermal stability and few or single polymorphic forms
